According to ChEMBL document CHEMBL4622903, “Repurposing of antipsychotics perphenazine for the treatment of endometrial cancer” (Bioorg Med Chem Lett, 2020):
Blank lines part the entries; values can stand above or below the compound they belong to. Active and inactive are the calls of the source. The calls are words filed in the database; no cut-off is given here.

Legend:
Ishikawa [1] = experiment: Antiproliferative activity against human Ishikawa cells assessed as inhibition of cell viability by CCK8 assay; assay type: functional, cell-based
KLE [2] = experiment: Antiproliferative activity against human KLE cells assessed as inhibition of cell viability by CCK8 assay; assay type: functional, cell-based
HEC-1-A [3] = experiment: Antiproliferative activity against human Hec1A cells assessed as inhibition of cell viability by CCK8 assay; assay type: functional, cell-based
HEC-1B cell line [4] = experiment: Antiproliferative activity against human HEC1B cells assessed as inhibition of cell viability by CCK8 assay; assay type: functional, cell-based
AN3-CA [5] = experiment: Antiproliferative activity against human AN3CA cells assessed as inhibition of cell viability by CCK8 assay; assay type: functional, cell-based
Ishikawa [6] = experiment: Inhibition of colony formation in progesterone sensitive human Ishikawa cells at 20 to 30 uM; assay type: functional, cell-based
Ishikawa [7] = experiment: Antimigratory activity against progesterone sensitive human Ishikawa cells assessed as inhibition of cell migration at 10 uM after 48 hrs by transwell assay; assay type: functional, cell-based
KLE [8] = experiment: Antimigratory activity against progesterone-resistant human KLE cells assessed as reduction in cell migration at 10 uM after 48 hrs by transwell assay; assay type: functional, cell-based
Ishikawa [9] = experiment: Antitumor activity against human Ishikawa cells xenografted in mouse assessed as tumor growth inhibition at 30 mg/kg measured after 28 days relative to control; assay type: functional; details: 672 h, read-out: GI
Ishikawa [10] = experiment: Potency index, ratio of medroxyprogesterone acetate IC50 to test compound IC50 for antiproliferative activity against human Ishikawa cells assessed as inhibition of cell viability by CCK8 assay; assay type: functional
KLE [11] = experiment: Potency index, ratio of medroxyprogesterone acetate IC50 to test compound IC50 for antiproliferative activity against human KLE cells assessed as inhibition of cell viability by CCK8 assay; assay type: functional
HEC-1-A [12] = experiment: Potency index, ratio of medroxyprogesterone acetate IC50 to test compound IC50 for antiproliferative activity against human Hec1A cells assessed as inhibition of cell viability by CCK8 assay; assay type: functional
HEC-1B cell line [13] = experiment: Potency index, ratio of medroxyprogesterone acetate IC50 to test compound IC50 for antiproliferative activity against human HEC1B cells assessed as inhibition of cell viability by CCK8 assay; assay type: functional
AN3-CA [14] = experiment: Potency index, ratio of medroxyprogesterone acetate IC50 to test compound IC50 for antiproliferative activity against human AN3CA cells assessed as inhibition of cell viability by CCK8 assay; assay type: functional
Ishikawa [15] = experiment: Inhibition of colony formation in progesterone sensitive human Ishikawa cells; assay type: functional, cell-based
KLE [16] = experiment: Inhibition of colony formation in progesterone resistant human KLE cells; assay type: functional, cell-based
Ishikawa [17] = experiment: Induction of apoptosis in progesterone-sensitive human Ishikawa cells assessed as early apoptotic cells at 10 uM after 48 hrs by Annexin-V/PI staining based flow cytometry (reference value: 1.92%); assay type: functional
Ishikawa [18] = experiment: Induction of apoptosis in progesterone-sensitive human Ishikawa cells assessed as late apoptotic cells at 10 uM after 48 hrs by Annexin-V/PI staining based flow cytometry (reference value: 3.56%); assay type: functional
Ishikawa [19] = experiment: Induction of apoptosis in progesterone-sensitive human Ishikawa cells assessed as necrotic cells at 10 uM after 48 hrs by Annexin-V/PI staining based flow cytometry (reference value: 1.21%); assay type: functional
Ishikawa [20] = experiment: Induction of apoptosis in progesterone-sensitive human Ishikawa cells assessed as early apoptotic cells at 20 uM after 48 hrs by Annexin-V/PI staining based flow cytometry (reference value: 1.92%); assay type: functional
Ishikawa [21] = experiment: Induction of apoptosis in progesterone-sensitive human Ishikawa cells assessed as late apoptotic cells at 20 uM after 48 hrs by Annexin-V/PI staining based flow cytometry (reference value: 3.56%); assay type: functional
Ishikawa [22] = experiment: Induction of apoptosis in progesterone-sensitive human Ishikawa cells assessed as necrotic cells at 20 uM after 48 hrs by Annexin-V/PI staining based flow cytometry (reference value: 1.21%); assay type: functional
KLE [23] = experiment: Induction of apoptosis in progesterone-resistant human KLE cells assessed as early apoptotic cells at 10 uM after 48 hrs by Annexin-V/PI staining based flow cytometry (reference value: 2.85%); assay type: functional
KLE [24] = experiment: Induction of apoptosis in progesterone-resistant human KLE cells assessed as late apoptotic cells at 10 uM after 48 hrs by Annexin-V/PI staining based flow cytometry (reference value: 3.56%); assay type: functional
KLE [25] = experiment: Induction of apoptosis in progesterone-resistant human KLE cells assessed as necrotic cells at 10 uM after 48 hrs by Annexin-V/PI staining based flow cytometry (reference value: 1.30%); assay type: functional
KLE [26] = experiment: Induction of apoptosis in progesterone-resistant human KLE cells assessed as early apoptotic cells at 20 uM after 48 hrs by Annexin-V/PI staining based flow cytometry (reference value: 2.85%); assay type: functional
KLE [27] = experiment: Induction of apoptosis in progesterone-resistant human KLE cells assessed as late apoptotic cells at 20 uM after 48 hrs by Annexin-V/PI staining based flow cytometry (reference value: 3.56%); assay type: functional
KLE [28] = experiment: Induction of apoptosis in progesterone-resistant human KLE cells assessed as necrotic cells at 20 uM after 48 hrs by Annexin-V/PI staining based flow cytometry (reference value: 1.30%); assay type: functional
Ishikawa [29] = experiment: Induction of apoptosis in progesterone-sensitive human Ishikawa cells after 48 hrs by Annexin-V/PI staining based flow cytometry; assay type: functional, cell-based
KLE [30] = experiment: Induction of apoptosis in progesterone-resistant human KLE cells after 48 hrs by Annexin-V/PI staining based flow cytometry; assay type: functional, cell-based
[31] = biological target: RAC-alpha serine/threonine-protein kinase (Homo sapiens) (UniProt P31749); experiment: Inhibition of AKT phosphorylation at ser 473 residue in human Ishikawa cells at 20 uM after 48 hrs by Western blot analysis; assay type: cell-based
[32] = biological target: RAC-alpha serine/threonine-protein kinase (Homo sapiens) (UniProt P31749); experiment: Inhibition of AKT phosphorylation at ser 473 residue in human KLE cells at 20 uM after 48 hrs by Western blot analysis; assay type: cell-based
Ishikawa [33] = experiment: Antitumor activity against human Ishikawa cells xenografted in mouse assessed as tumor growth inhibition at 3 mg/kg measured after 28 days relative to control; assay type: functional; details: 672 h, read-out: GI
Ishikawa [34] = experiment: Antitumor activity against human Ishikawa cells xenografted in mouse assessed as tumor growth inhibition at 15 mg/kg measured after 28 days relative to control; assay type: functional; details: 672 h, read-out: GI
[35] = Toxicity in mouse xenografted with human Ishikawa cells assessed as effect on body weight at 3 to 15 mg/kg after 28 days; assay type: organism-based; details: in vivo, 672 h

Sequence of RAC-alpha serine/threonine-protein kinase (Homo sapiens) (P31749 whole entry): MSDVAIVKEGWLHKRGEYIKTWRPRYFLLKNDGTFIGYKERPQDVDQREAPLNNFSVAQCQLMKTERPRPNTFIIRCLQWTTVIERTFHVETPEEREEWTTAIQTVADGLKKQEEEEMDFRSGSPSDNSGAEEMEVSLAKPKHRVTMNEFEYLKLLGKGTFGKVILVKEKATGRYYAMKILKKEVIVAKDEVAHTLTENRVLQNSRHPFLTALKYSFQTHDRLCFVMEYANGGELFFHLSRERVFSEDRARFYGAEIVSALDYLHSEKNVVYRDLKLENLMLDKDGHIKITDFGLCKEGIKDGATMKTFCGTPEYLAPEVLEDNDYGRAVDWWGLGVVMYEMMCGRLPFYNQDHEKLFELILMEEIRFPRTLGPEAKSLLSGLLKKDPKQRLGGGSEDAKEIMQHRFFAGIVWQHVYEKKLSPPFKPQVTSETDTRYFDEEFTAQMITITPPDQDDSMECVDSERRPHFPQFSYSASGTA

SMILES: CC(=O)O[C@]1(C(C)=O)CC[C@H]2[C@@H]3C[C@H](C)C4=CC(=O)CC[C@]4(C)[C@H]3CC[C@@]21C [MEDROXYPROGESTERONE ACETATE]
IC50 (Ishikawa [1]): 37 µM | IC50 (KLE [2]): > 80 µM | IC50 (HEC-1-A [3]): 51.8 µM | IC50 (HEC-1B cell line [4]): 60.4 µM | IC50 (AN3-CA [5]): 37.1 µM | inhibition (Ishikawa [6]): Active | inhibition (Ishikawa [7]): Active | Activity (KLE [8]): inactive | inhibition in vivo at 30 mg/kg (Ishikawa [9]): 22.6%

inhibition [31]: Active | inhibition [32]: Active
SMILES: OCCN1CCN(CCCN2c3ccccc3Sc3ccc(Cl)cc32)CC1 [PERPHENAZINE]
IC50 (Ishikawa [1]): 19.4 µM | IC50 (KLE [2]): 30.8 µM | IC50 (HEC-1-A [3]): 23.3 µM | IC50 (HEC-1B cell line [4]): 29.8 µM | IC50 (AN3-CA [5]): 25.4 µM | Ratio IC50 (Ishikawa [10]): 1.9 | Ratio IC50 (KLE [11]): >2.6 | Ratio IC50 (HEC-1-A [12]): 2.2 | Ratio IC50 (HEC-1B cell line [13]): 2 | Ratio IC50 (AN3-CA [14]): 1.5 | inhibition (Ishikawa [15]): Dose-dependent effect | inhibition (KLE [16]): Dose-dependent effect | inhibition (Ishikawa [7]): Active | Activity (KLE [8]): Active | Activity (Ishikawa [17]): 6.9% | Activity (Ishikawa [18]): 7.4% | Activity (Ishikawa [19]): 2.64% | Activity (Ishikawa [20]): 6.76% | Activity (Ishikawa [21]): 12.52% | Activity (Ishikawa [22]): 2.68% | Activity (KLE [23]): 4.33% | Activity (KLE [24]): 7.88% | Activity (KLE [25]): 5.45% | Activity (KLE [26]): 6.07% | Activity (KLE [27]): 11.41% | Activity (KLE [28]): 2.68% | Activity (Ishikawa [29]): Dose-dependent effect | Activity (KLE [30]): Dose-dependent effect | inhibition in vivo at 3 mg/kg (Ishikawa [33]): 58.1% | inhibition in vivo at 15 mg/kg (Ishikawa [34]): 79.9% | Activity [35]: Non-Toxic
